Test results taken from BindingDB's records for patent US20130102619 (2013).

Molecular target: T1, Orexin receptor type 2 (Homo sapiens, UniProt O43614)
T1 sequence (O43614 whole entry): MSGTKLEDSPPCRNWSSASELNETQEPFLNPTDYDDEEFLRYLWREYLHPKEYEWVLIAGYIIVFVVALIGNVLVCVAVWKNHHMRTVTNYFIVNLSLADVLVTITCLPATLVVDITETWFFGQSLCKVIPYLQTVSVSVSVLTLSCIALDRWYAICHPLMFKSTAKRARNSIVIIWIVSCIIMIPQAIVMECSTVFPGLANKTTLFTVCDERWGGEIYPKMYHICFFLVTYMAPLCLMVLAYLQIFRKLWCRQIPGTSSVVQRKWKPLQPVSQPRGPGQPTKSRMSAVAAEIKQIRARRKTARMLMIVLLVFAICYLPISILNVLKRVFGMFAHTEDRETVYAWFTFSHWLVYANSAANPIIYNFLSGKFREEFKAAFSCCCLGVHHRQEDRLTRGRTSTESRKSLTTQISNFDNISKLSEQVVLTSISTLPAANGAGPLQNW
Test: FLIPR Ca2+ Flux Assay
Conditions: 37 °C
Method: Chinese hamster ovary (CHO) cells expressing the rat orexin-1 receptor or the human orexin-2 receptor, are grown in Iscove's modified DMEM containing 2 mM L-glutamine, […], 1% hypoxanthine-thymidine supplement, 100 U/ml penicillin, 100 ug/ml streptomycin and 10% heat-inactivated fetal calf serum (FCS). The cells are seeded at 20,000 cells/well into Becton-Dickinson black 384-well clear bottom sterile plates coated with poly-D-lysine. All reagents were from GIBCO-Invitrogen Corp. The seeded plates are incubated overnight at 37° C. and 5% CO2. Ala-6,12 human orexin-A as the agonist is prepared as a 1 mM stock solution in 1% bovine serum albumin (BSA) and diluted in assay buffer (HBSS containing 20 mM HEPES, 0.1% BSA and 2.5 mM probenecid, pH7.4) for use in the assay at a final concentration of 70 pM. Test compounds are prepared as 10 mM stock solution in DMSO, then diluted in 384-well plates, first in DMSO, then assay buffer. On the day of the assay, cells are washed 3 times with 100 ul assay buffer and then incubated for 60 min (37° C., 5% CO2) in 60 ul assay buffer containing 1 uM Fluo-4AM ester, 0.02% pluronic acid, and 1% BSA. The dye loading solution is then aspirated and cells are washed 3 times with 100 ul assay buffer. 30 ul of that same buffer is left in each well. Within the Fluorescent Imaging Plate Reader (FLIPR, Molecular Devices), test compounds are added to the plate in a volume of 25 ul, incubated for 5 min and finally 25 ul of agonist is added. Fluorescence is measured for each well at 1 second intervals for 5 minutes and the height of each fluorescence peak is compared to the height of the fluorescence peak induced by 70 pM Ala-6,12 orexin-A with buffer in place of antagonist.

Row | Compound | IC50 [µM]
1 | C[C@@H]1CC[C@@H](Oc2cc(C#N)ccn2)CN1C(=O)c1ccccc1-n1nccn1 [US20130102619, 1] | 0.012
2 | C[C@@H]1CC[C@@H](Oc2cc(C#N)ccn2)CN1C(=O)c1ccccc1-c1ncccn1 [US20130102619, 2] | 0.028
3 | Cc1nc(-c2ccccc2C(=O)N2C[C@H](Oc3cc(C#N)ccn3)CC[C@H]2C)no1 [US20130102619, 3] | 0.018
